{"source": "ChEMBL document CHEMBL1137640", "about": "“In vitro antimycobacterial spectrum of a diarylquinoline ATP synthase inhibitor” (2007)", "format_in_all_cases": "functional", "key": {"[1]": {"tested_on": "Mycobacterium avium", "experiment": "Antimicrobial activity against Mycobacterium avium 2 after 2 to 4 weeks by two fold dilution method"}, "[2]": {"tested_on": "Mycobacterium avium", "experiment": "Antimicrobial activity against Mycobacterium avium 4 after 2 to 4 weeks by two fold dilution method"}, "[3]": {"tested_on": "Mycobacterium avium", "experiment": "Antimicrobial activity against Mycobacterium avium 6 after 2 to 4 weeks by two fold dilution method"}, "[4]": {"tested_on": "Mycobacterium avium", "experiment": "Antimicrobial activity against Mycobacterium avium 8 after 2 to 4 weeks by two fold dilution method"}, "[5]": {"tested_on": "Mycobacterium avium", "experiment": "Antimicrobial activity against Mycobacterium avium 9 after 2 to 4 weeks by two fold dilution method"}, "[6]": {"tested_on": "Mycobacterium avium", "experiment": "Antimicrobial activity against Mycobacterium avium 11 after 2 to 4 weeks by two fold dilution method"}, "[7]": {"tested_on": "Mycobacterium avium", "experiment": "Antimicrobial activity against Mycobacterium avium 16 after 2 to 4 weeks by two fold dilution method"}, "[8]": {"tested_on": "Mycobacterium avium", "experiment": "Antimicrobial activity against Mycobacterium avium 21 after 2 to 4 weeks by two fold dilution method"}, "[9]": {"tested_on": "Mycobacterium avium", "experiment": "Antimicrobial activity against Mycobacterium avium 23 after 2 to 4 weeks by two fold dilution method"}, "[10]": {"tested_on": "Mycobacterium intracellulare", "experiment": "Antimicrobial activity against Mycobacterium intracellular 7 after 2 to 4 weeks by two fold dilution method"}, "[11]": {"tested_on": "Mycobacterium intracellulare", "experiment": "Antimicrobial activity against Mycobacterium intracellular 20 after 2 to 4 weeks by two fold dilution method"}, "[12]": {"tested_on": "Mycobacterium intracellulare", "experiment": "Antimicrobial activity against Mycobacterium intracellular 14 after 2 to 4 weeks by two fold dilution method"}, "[13]": {"tested_on": "Mycobacteroides chelonae", "experiment": "Antimicrobial activity against Mycobacterium chelonae after 2 to 4 weeks by two fold dilution method"}, "[14]": {"tested_on": "Mycolicibacterium fortuitum", "experiment": "Antimicrobial activity against Mycobacterium fortuitum after 2 to 4 weeks by two fold dilution method"}, "[15]": {"tested_on": "Mycolicibacterium mageritense", "experiment": "Antimicrobial activity against Mycobacterium mageritense after 2 to 4 weeks by two fold dilution method"}, "[16]": {"tested_on": "Mycolicibacterium phlei", "experiment": "Antimicrobial activity against Mycobacterium phlei after 2 to 4 weeks by two fold dilution method"}, "[17]": {"tested_on": "Mycolicibacterium vaccae", "experiment": "Antimicrobial activity against Mycobacterium vaccae after 2 to 4 weeks by two fold dilution method"}, "[18]": {"tested_on": "Mycobacterium kansasii", "experiment": "Antimicrobial activity against Mycobacterium kansasii after 2 to 4 weeks by two fold dilution method"}, "[19]": {"tested_on": "Mycobacterium malmoense", "experiment": "Antimicrobial activity against Mycobacterium malmoense after 2 to 4 weeks by two fold dilution method"}, "[20]": {"tested_on": "Mycobacterium gordonae", "experiment": "Antimicrobial activity against Mycobacterium gordonae after 2 to 4 weeks by two fold dilution method"}, "[21]": {"tested_on": "Mycobacterium simiae", "experiment": "Antimicrobial activity against Mycobacterium simiae after 2 to 4 weeks by two fold dilution method"}, "[22]": {"tested_on": "Mycobacterium scrofulaceum", "experiment": "Antimicrobial activity against Mycobacterium scrofulaceum after 2 to 4 weeks by two fold dilution method"}, "[23]": {"tested_on": "Mycolicibacter hiberniae", "experiment": "Antimicrobial activity against Mycobacterium hiberniae after 2 to 4 weeks by two fold dilution method"}, "[24]": {"tested_on": "Mycobacterium interjectum", "experiment": "Antimicrobial activity against Mycobacterium interjectum after 2 to 4 weeks by two fold dilution method"}, "[25]": {"tested_on": "Mycobacterium szulgai", "experiment": "Antimicrobial activity against Mycobacterium szulgai after 2 to 4 weeks by two fold dilution method"}, "[26]": {"tested_on": "Mycolicibacter terrae", "experiment": "Antimicrobial activity against Mycobacterium terrae after 2 to 4 weeks by two fold dilution method"}, "[27]": {"tested_on": "Mycobacterium conspicuum", "experiment": "Antimicrobial activity against Mycobacterium conspicuum after 2 to 4 weeks by two fold dilution method"}, "[28]": {"tested_on": "Mycolicibacterium novocastrense", "experiment": "Antimicrobial activity against R207910 resistant Mycobacterium novocastrense after 2 to 4 weeks by two fold dilution method"}, "[29]": {"tested_on": "Mycobacterium xenopi", "experiment": "Antimicrobial activity against Mycobacterium xenopi after 2 to 4 weeks by two fold dilution method"}, "[30]": {"tested_on": "Mycobacterium shimoidei", "experiment": "Antimicrobial activity against Mycobacterium shimoidei after 2 to 4 weeks by two fold dilution method"}, "[31]": {"tested_on": "Mycobacterium tuberculosis", "experiment": "Antimicrobial activity against drug-susceptible Mycobacterium tuberculosis isolate after 2 to 4 weeks by two fold dilution method"}, "[32]": {"tested_on": "Mycobacterium avium complex sp.", "experiment": "Antimicrobial activity against Mycobacterium avium complex isolate after 2 to 4 weeks by two fold dilution method"}, "[33]": {"tested_on": "Mycobacterium avium", "experiment": "Antimicrobial activity against Mycobacterium avium 1 after 2 to 4 weeks by two fold dilution method"}, "[34]": {"conditions": "Mycobacterium avium complex sp."}}}
{"molecule": "COc1nc2ccc(Br)cc2cc1[C@@H](c1ccccc1)[C@@](O)(CCN(C)C)c1cccc2ccccc12", "note": "[BEDAQUILINE]", "values": [{"measurement": "MIC", "setting": "[1]", "value": 0.03, "unit": "µg/mL"}, {"measurement": "MIC", "setting": "[2]", "value": 0.03, "unit": "µg/mL"}, {"measurement": "MIC", "setting": "[3]", "value": 0.13, "unit": "µg/mL"}, {"measurement": "MIC", "setting": "[4]", "value": 0.03, "unit": "µg/mL"}, {"measurement": "MIC", "setting": "[5]", "value": 0.13, "unit": "µg/mL"}, {"measurement": "MIC", "setting": "[6]", "value": 0.03, "unit": "µg/mL"}, {"measurement": "MIC", "setting": "[7]", "value": 0.06, "unit": "µg/mL"}, {"measurement": "MIC", "setting": "[8]", "value": 0.03, "unit": "µg/mL"}, {"measurement": "MIC", "setting": "[9]", "value": 0.03, "unit": "µg/mL"}, {"measurement": "MIC", "setting": "[10]", "value": 0.03, "unit": "µg/mL"}, {"measurement": "MIC", "setting": "[11]", "value": 0.03, "unit": "µg/mL"}, {"measurement": "MIC", "setting": "[12]", "value": 0.03, "unit": "µg/mL"}, {"measurement": "MIC", "setting": "[13]", "value": 0.06, "unit": "µg/mL"}, {"measurement": "MIC", "setting": "[14]", "value": 0.13, "unit": "µg/mL"}, {"measurement": "MIC", "setting": "[15]", "value": 0.03, "unit": "µg/mL"}, {"measurement": "MIC", "setting": "[16]", "value": 0.03, "unit": "µg/mL"}, {"measurement": "MIC", "setting": "[17]", "value": 0.03, "unit": "µg/mL"}, {"measurement": "MIC", "setting": "[18]", "value": 0.03, "unit": "µg/mL"}, {"measurement": "MIC", "setting": "[19]", "value": 0.5, "unit": "µg/mL"}, {"measurement": "MIC", "setting": "[20]", "value": 0.03, "unit": "µg/mL"}, {"measurement": "MIC", "setting": "[21]", "value": 0.03, "unit": "µg/mL"}, {"measurement": "MIC", "setting": "[22]", "value": 0.03, "unit": "µg/mL"}, {"measurement": "MIC", "setting": "[23]", "value": 0.03, "unit": "µg/mL"}, {"measurement": "MIC", "setting": "[24]", "value": 0.03, "unit": "µg/mL"}, {"measurement": "MIC", "setting": "[25]", "value": 0.03, "unit": "µg/mL"}, {"measurement": "MIC", "setting": "[26]", "value": 0.03, "unit": "µg/mL"}, {"measurement": "MIC", "setting": "[27]", "value": 0.13, "unit": "µg/mL"}, {"measurement": "MIC", "setting": "[28]", "value": 8, "unit": "µg/mL"}, {"measurement": "MIC", "setting": "[29]", "value": 4, "unit": "µg/mL"}, {"measurement": "MIC", "setting": "[30]", "value": 8, "unit": "µg/mL"}, {"measurement": "MIC", "setting": "[31]", "value": 2, "unit": "ng/mL"}, {"measurement": "MIC50", "setting": "[31]", "value": 0.03, "unit": "µg/mL"}, {"measurement": "MIC90", "setting": "[31]", "value": 0.06, "unit": "µg/mL"}, {"measurement": "MI50", "setting": "[32]", "value": 0.03, "unit": "µg/mL"}, {"measurement": "MIC", "setting": "[32]; [34]", "value": 0.03, "unit": "µg/mL"}, {"measurement": "MIC90", "setting": "[32]; [34]", "value": 0.13, "unit": "µg/mL"}, {"measurement": "MIC", "setting": "[33]", "value": 0.03, "unit": "µg/mL"}]}
